How the values were obtained:
[1] = target: T1, hGPR119 (Homo sapiens, UniProt Q8TDV5); test: HTRF cAMP assay in CHO-K1 cells stably expressing the GPR119 receptor; assay type: cell-based
T1 construct: expressed in transfected cells
T1 sequence (Q8TDV5 2-335 limits assumed): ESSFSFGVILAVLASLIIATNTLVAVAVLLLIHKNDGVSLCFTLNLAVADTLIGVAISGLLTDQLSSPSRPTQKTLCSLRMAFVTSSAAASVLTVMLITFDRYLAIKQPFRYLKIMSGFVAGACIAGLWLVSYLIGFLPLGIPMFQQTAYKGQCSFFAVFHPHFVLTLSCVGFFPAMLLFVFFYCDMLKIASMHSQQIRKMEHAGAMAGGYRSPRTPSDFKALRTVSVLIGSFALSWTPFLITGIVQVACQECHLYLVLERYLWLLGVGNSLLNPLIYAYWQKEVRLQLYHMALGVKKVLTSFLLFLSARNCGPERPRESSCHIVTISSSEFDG
Experimental: GPR119 agonists were evaluated in an HTRF® cAMP detection assay according to the manufacturer's instructions (Cisbio, cAMP Dynamic 2 Assay Kit; #62AM4PEJ) using CHO-K1 cells stably expressing the GPR119 receptor. Briefly, CHO-K1 cells were transduced with a lentiviral vector encoding the nucleotide sequence of GPR119 (NCBI mRNA and protein reference sequences: NM_178471.2 & NP_848566, (GPR119 has also been referred to as Glucose-Dependent Insulinotropic Receptor (GDIR)). The N-terminus of the GPR119 nucleotide sequence was modified to replace the first, methionine-coding codon with a nucleotide sequence coding for a standard, nine amino acid, hemagglutinin tag. Following transduction, cells expressing the GPR119 receptor were isolated and a single clone was isolated following standard dilution-cloning procedures. On the day of the assay, cultured CHO-GPR119 cells were harvested, suspended in assay buffer and plated into 384-well assay plates (PerkinElmer Proxiplate #6008280) at a density of 2,000 cells per well. A cAMP standard curve was added to each plate. Test compounds were solubilized in DMSO, serially diluted in DMSO and then diluted in assay buffer before adding to the cells. Test compounds were evaluated in triplicate, using 10-point, 5-fold serial dilutions starting at 10 μM. The final DMSO concentration in the assay was 0.5%. Compounds and cells were incubated for 1 h at room temperature and then detection reagents were added to each well (cAMP-D2 in cell lysis buffer, followed by europium cryptate-labeled anti-cAMP antibody). Plates were then incubated at room temperature for 1 h prior to reading. Time-resolved fluorescence measurements were collected on PerkinElmer Envision™ or BMG Pherastar™ microplate readers. The compound N-(2-fluoro-4-(methylsulfonyl)phenyl)-6-(4-(3-isopropyl-1,2,4-oxadiazol-5-yl)piperidin-1-yl)-5-nitropyrimidin-4-amine was used as a positive control in each runset while assay buffer containing 0.5% DMSO was used as the negative control. The HTRF® assay was used to determine EC50 values for GPR119 agonists.

[2] = tested on: Male 129SVE mice; test: Oral glucose tolerance test (oGTT) in male 129SVE mice; assay type: in vivo; conditions: for plasma glucose level, Mean: oGTT, in mg/dL (unit assumed)
Experimental: Male 129SVE mice (approximately 8-week old) were fasted for 18 h and randomly grouped (n=6) to receive a GPR119 agonist (Compound 8) at 3, or 30 mg/kg (mg/kg body weight). The compound was delivered orally via a gavage needle (p.o., volume at 4 mL/kg) 30 minutes prior to glucose bolus (3 g/kg) (time=−30 min in FIG. 1), with a separate group receiving vehicle (20% hydroxypropyl-beta-cyclodextrin) as control. At time 0 min the glucose bolus was administered. Levels of blood glucose were assessed using a glucometer (One-Touch Ultra™, LifeScan) at time −30 minute (prior to compound administration), at 0 min (at time when glucose bolus was given), and at 20, 40, 60, 120 minutes post glucose bolus. The plasma glucose level (Table 1) and glucose excursion curve (FIG. 1) are shown. Glucose excursion AUC (area under the curve) reduction in compound treated animals relative to vehicle control is given in FIG. 2.

[3] = tested on: Male 129SVE mice; test: In vivo incretin hormone GIP release (plasma total GIP, ELISA); conditions: 3 or 30 mpk p.o., blood sample after 45 min
Experimental: Male 129SVE mice (approximately 8-week old) were fasted for 18 h and randomly grouped (n=6) to receive a GPR119 agonist (Compound 8) at 3 or 30 mpk dose (mg/kg body weight). Compound 8 were delivered orally via a gavage needle (p.o., volume at 4 mL/kg), and after 45 min a blood sample was collected to determine plasma total GIP levels. A separate group received vehicle (PET: 80% PEG:10% Ethanol:10% Tween80™) as control. Plasma GIP levels were determined using a Total GIP ELISA kit from Millipore.

| Structure (SMILES) | EC50 [1] | further results |
| --- | --- | --- |
| CC(C)(C)OC(=O)N1CCC(CO[C@H]2CC[C@H](c3ccc(S(C)(=O)=O)cc3)CC2)CC1 [Compound 1, tert-Butyl 4-((4-(4-(Methylsulfonyl)phenyl)cyclohexyloxy)methyl)piperidine-1-carboxylate] | 0.016 µM | – |
| CCc1cnc(N2CCC(CO[C@H]3CC[C@H](c4ccc(S(C)(=O)=O)cc4F)CC3)CC2)nc1 [Compound 8, 5-Ethyl-2-(4-(((1r,4r)-4-(2-fluoro-4-(methylsulfonyl)phenyl)cyclohexyloxy)methyl)piperidin-1-yl)pyrimidine] | – | effect on blood glucose after glucose challenge ([2]; 129SVE mice, 3 or 30 mg/kg p.o., 30 min prior to glucose bolus (3 g/kg)): lowered blood glucose; plasma glucose level, Mean ([2]; 3 mpk p.o., 20 min post glucose bolus): 201.3; plasma glucose level, Mean ([2]; 3 mpk p.o., 40 min post glucose bolus): 250.2; plasma glucose level, Mean ([2]; 3 mpk p.o., 60 min post glucose bolus): 262.8; plasma glucose level, Mean ([2]; 3 mpk p.o., 120 min post glucose bolus): 163.3; plasma glucose level, Mean ([2]; 3 mpk p.o., time 0 min relative to glucose bolus): 112.5; plasma glucose level, Mean ([2]; 3 mpk p.o., time −30 min relative to glucose bolus (prior to compound administration)): 88.7; plasma glucose level, Mean ([2]; 30 mpk p.o., 20 min post glucose bolus): 163.5; plasma glucose level, Mean ([2]; 30 mpk p.o., 40 min post glucose bolus): 204.2; plasma glucose level, Mean ([2]; 30 mpk p.o., 60 min post glucose bolus): 193.2; plasma glucose level, Mean ([2]; 30 mpk p.o., 120 min post glucose bolus): 107.5; plasma glucose level, Mean ([2]; 30 mpk p.o., time 0 min relative to glucose bolus): 96.0; plasma glucose level, Mean ([2]; 30 mpk p.o., time −30 min relative to glucose bolus (prior to compound administration)): 72.2; effect on plasma total GIP release [3]: stimulates the release of GIP |
| CC(C)OC(=O)N1CCC(CO[C@H]2CC[C@H](c3ccc(S(C)(=O)=O)cc3F)CC2)CC1 [Compound 11, Isopropyl 4-(((1r,4r)-4-(2-Fluoro-4-(methylsulfonyl)phenyl)cyclohexyloxy)methyl)piperidine-1-carboxylate] | 0.021 µM | – |
| CC(C)(C)OC(=O)N1CCC(CO[C@H]2CC[C@@H](c3cnc(S(C)(=O)=O)cn3)CC2)CC1 [Compound 12, tert-Butyl 4-((-4-(5-(Methylsulfonyl)pyrazin-2-yl)cyclohexyloxy)methyl)piperidine-1-carboxylate] | 0.707 µM | – |
| CC(C)(F)c1noc(N2CCC(CO[C@H]3CC[C@H](c4ccc(S(C)(=O)=O)cc4F)CC3)CC2)n1 [Compound 16, 5-(4-(((1r,4r)-4-(2-Fluoro-4-(methylsulfonyl)phenyl)cyclohexyloxy)methyl)piperidin-1-yl)-3-(2-fluoropropan-2-yl)-1,2,4-oxadiazole] | 0.038 µM | – |
| CS(=O)(=O)c1ccc([C@H]2CC[C@H](OCC3CCN(c4ncc(C(F)(F)F)cn4)CC3)CC2)nc1 [Compound 18] | 0.134 µM | – |
| CC(C)c1noc(N2CCC(COC3CC=C(c4ccc(S(C)(=O)=O)cc4)CC3)CC2)n1 (stereo not shown) [Compound 23, 3-Isopropyl-5-(4-((4-(4-(Methylsulfonyl)phenyl)cyclohex-3-enyloxy)methyl)piperidin-1-yl)-1,2,4-oxadiazole] | 0.015 µM | – |
| Cc1nc(S(C)(=O)=O)ccc1[C@H]1CC[C@H](OCC2CCN(c3ncc(C(F)(F)F)cn3)CC2)CC1 [Compound 31, 2-(4-(((1r,4r)-4-(2-Methyl-6-(methylsulfonyl)pyridin-3-yl)cyclohexyloxy)methyl)piperidin-1-yl)-5-(trifluoromethyl)pyrimidine] | 0.042 µM | – |
| CC(C)OC(=O)N1CCC(CO[C@H]2CC[C@H](c3ccc(S(C)(=O)=O)cc3)CC2)CC1 [Compound 38, Isopropyl 4-((4-(4-(Methylsulfonyl)phenyl)cyclohexyloxy)methyl)piperidine-1-carboxylate] | 0.057 µM | – |
| CSc1ccc([C@H]2CC[C@H](OCC3CCN(C(=O)OC(C)(C)C)CC3)CC2)cc1 [Compound 41, tert-Butyl 4-((4-(4-(Methylthio)phenyl)cyclohexyloxy)methyl)piperidine-1-carboxylate] | 0.505 µM | – |
| CC(C)(C)OC(=O)N1CCC(CO[C@H]2CC[C@H](c3ccc(S(C)(=O)=O)cc3F)CC2)CC1 [Compound 42, tert-Butyl 4-((4-(2-Fluoro-4-(methylsulfonyl)phenyl)cyclohexyloxy)methyl)piperidine-1-carboxylate] | 0.0064 µM | – |
| CC(C)(C)OC(=O)N1CCC(CO[C@H]2CC[C@H](c3ccncc3C#N)CC2)CC1 [Compound 49, tert-Butyl 4-(((1r,4r)-4-(3-Cyanopyridin-4-yl)cyclohexyloxy)methyl)piperidine-1-carboxylate] | 1.03 µM | – |
| CC(C)(C)OC(=O)N1CCC(COC2CC=C(c3ccncc3C#N)CC2)CC1 (stereo not shown) [Compound 50, tert-Butyl 4-((4-(3-Cyanopyridin-4-yl)cyclohex-3-enyloxy)methyl)piperidine-1-carboxylate] | 0.038 µM | – |
| CC(C)(C)OC(=O)N1CCC(CO[C@H]2CC[C@H](c3ccncc3F)CC2)CC1 [Compound 56, tert-Butyl 4-(((1r,4r)-4-(3-Fluoropyridin-4-yl)cyclohexyloxy)methyl)piperidine-1-carboxylate] | 0.063 µM | – |
| CS(=O)(=O)c1ccc([C@H]2CC[C@H](OCC3CCN(Cc4nc(C(F)(F)F)no4)CC3)CC2)c(F)c1 [Compound 60, 5-((4-(((1r,4r)-4-(2-Fluoro-4-(methylsulfonyl)phenyl)cyclohexyloxy)methyl)piperidin-1-yl)methyl)-3-(trifluoromethyl)-1,2,4-oxadiazole] | 0.2 µM | – |
